Measurements from patent US10039759B2, “Quinolines as FGFR kinase modulators” (priority 2011, dated 2018).
Counter-ions that a name gives are not always drawn.

Columns and labels:
KDR (h) = KDR (h) (Homo sapiens, UniProt P35968); assay: KDR (VEGFR2) (enzymatic assay), TR-FRET; assay type: biochemical; conditions: 3 μM ATP, 120 min; pIC50 = -log IC50 (M); average if tested multiple times; read-out: VEGFR KDR pIC50 (converted)
Description: KDR (VEGFR2) (Enzymatic Assay)
In a final reaction volume of 30 μL, KDR (h) (150 ng/ml) was incubated with 50 mM HEPES pH 7.5, 6 mM MnCl2, 1 mM DTT, 0.1 mM Na3VO4, 0.01% Triton-X-100, 500 nM Btn-Flt3 and 3 μM ATP in the presence of compound (1% DMSO final). After incubation for 120 minutes at room temperature the reaction was stopped with 2.27 nM EU-anti P-Tyr, 7 mM EDTA, 31.25 nM SA-XL-665 and 0.02% BSA which was present for 60 minutes at room temperature. Time-Resolved Fluorescence Resonance Energy Transfer (TR-FRET) signal (ex340 nm. Em 620 nm, em 655 nm) was measured afterwards and results are expressed in RFU (Relative Fluorescence Units). In this assay, the inhibitory effect of different compound concentrations (range 10 μM to 0.1 nM) was determined and used to calculate an IC50 (M) and pIC50 (−log IC50) value.

FGFR2 (h) = FGFR2 (h) (Homo sapiens, UniProt P21802); assay: FGFR2 (enzymatic assay), TR-FRET; assay type: biochemical; conditions: 0.4 μM ATP, 60 min; pIC50 = -log IC50 (M); average if tested multiple times; read-out: FGFR 2 pIC50 (converted)
[1] = molecular target: T1, Ba/F3-KDR-transfected cells (Homo sapiens, UniProt P35968, cells depend on it, form not given); assay: Ba/F3-KDR (minus IL3 or plus IL3) cellular proliferation assay, Alamar Blue; assay type: cell-based; conditions: minus IL3; 24 hours, Alamar Blue
T1 construct: BAF3-KDR (MIN IL3 Alamar Blue pIC50); other: minus IL3; 24 hours, Alamar Blue
T1 sequence (P35968 whole entry, change not shown): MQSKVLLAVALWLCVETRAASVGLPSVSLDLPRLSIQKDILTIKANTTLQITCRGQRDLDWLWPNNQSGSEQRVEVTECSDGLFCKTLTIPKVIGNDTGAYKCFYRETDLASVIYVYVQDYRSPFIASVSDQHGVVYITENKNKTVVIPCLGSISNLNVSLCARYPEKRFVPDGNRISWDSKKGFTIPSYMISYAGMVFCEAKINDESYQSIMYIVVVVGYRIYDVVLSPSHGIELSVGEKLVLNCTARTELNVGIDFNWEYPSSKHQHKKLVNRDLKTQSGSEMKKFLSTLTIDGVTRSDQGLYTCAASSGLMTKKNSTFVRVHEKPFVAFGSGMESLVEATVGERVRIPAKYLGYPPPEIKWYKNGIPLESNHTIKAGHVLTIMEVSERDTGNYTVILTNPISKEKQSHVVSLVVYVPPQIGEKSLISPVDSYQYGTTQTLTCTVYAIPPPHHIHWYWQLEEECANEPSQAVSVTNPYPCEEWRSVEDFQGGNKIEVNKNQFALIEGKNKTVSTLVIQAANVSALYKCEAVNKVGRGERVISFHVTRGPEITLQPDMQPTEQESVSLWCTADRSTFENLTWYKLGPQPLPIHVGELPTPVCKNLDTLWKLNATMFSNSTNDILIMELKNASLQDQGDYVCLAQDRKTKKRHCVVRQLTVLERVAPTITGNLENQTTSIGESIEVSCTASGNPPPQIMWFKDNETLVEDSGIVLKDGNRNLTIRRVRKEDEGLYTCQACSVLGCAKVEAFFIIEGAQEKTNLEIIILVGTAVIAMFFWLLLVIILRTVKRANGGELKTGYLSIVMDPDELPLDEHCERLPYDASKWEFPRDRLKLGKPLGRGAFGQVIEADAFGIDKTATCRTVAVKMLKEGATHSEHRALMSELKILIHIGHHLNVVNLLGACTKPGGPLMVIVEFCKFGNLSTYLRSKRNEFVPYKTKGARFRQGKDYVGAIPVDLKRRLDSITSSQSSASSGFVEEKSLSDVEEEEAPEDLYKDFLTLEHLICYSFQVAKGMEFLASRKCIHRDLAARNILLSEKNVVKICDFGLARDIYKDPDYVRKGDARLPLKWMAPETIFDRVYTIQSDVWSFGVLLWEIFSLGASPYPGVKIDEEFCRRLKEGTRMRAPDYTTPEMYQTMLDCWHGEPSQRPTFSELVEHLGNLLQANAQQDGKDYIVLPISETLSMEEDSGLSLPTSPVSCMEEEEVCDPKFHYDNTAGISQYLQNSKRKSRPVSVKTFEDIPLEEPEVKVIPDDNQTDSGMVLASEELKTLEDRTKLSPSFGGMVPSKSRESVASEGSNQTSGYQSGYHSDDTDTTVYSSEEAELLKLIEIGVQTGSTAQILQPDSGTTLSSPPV
Description: (§1) Ba/F3-KDR (Minus IL3 or Plus IL3) (Cellular Proliferation Assay)
(§2) In a 384 well plate, 100 nl of compound dilution in DMSO was sprayed before adding 50 μl cell culture medium (phenol red free RPMI-1640, 10% FBS, 2 mM L-Glutamine and 50 μg/ml Gentamycin) containing 20000 cells per well of Ba/F3-KDR-transfected cells. Cells were put in an incubator at 37° C. and 5% CO2. After 24 hours, 10 μl of Alamar Blue solution (0.5 mM K3Fe(CN)6, 0.5 mM K4Fe(CN)6, 0.15 mM Resazurin and 100 mM Phosphate Buffer) was added to the wells, incubated for 4 hours at 37° C. and 5% CO2 before RFU's (Relative Fluorescence Units) (ex. 540 nm., em. 590 nm.) were measured in a fluorescence plate reader.
(§3) In this assay, the inhibitory effect of different compound concentrations (range 10 μM to 0.1 nM) was determined and used to calculate an IC50 (M) and pIC50 (−log IC50) value. As a counterscreen the same experiment was performed in the presence of 10 ng/ml murine IL3.

FGFR3 (h) = FGFR3 (h) (Homo sapiens, UniProt P22607); assay: FGFR3 (enzymatic assay), TR-FRET; assay type: biochemical; conditions: 25 μM ATP, 60 min; pIC50 = -log IC50 (M); average if tested multiple times; read-out: hFGFR 3 pIC50 (converted)
FGFR3 (h), sequence (P22607 23-806): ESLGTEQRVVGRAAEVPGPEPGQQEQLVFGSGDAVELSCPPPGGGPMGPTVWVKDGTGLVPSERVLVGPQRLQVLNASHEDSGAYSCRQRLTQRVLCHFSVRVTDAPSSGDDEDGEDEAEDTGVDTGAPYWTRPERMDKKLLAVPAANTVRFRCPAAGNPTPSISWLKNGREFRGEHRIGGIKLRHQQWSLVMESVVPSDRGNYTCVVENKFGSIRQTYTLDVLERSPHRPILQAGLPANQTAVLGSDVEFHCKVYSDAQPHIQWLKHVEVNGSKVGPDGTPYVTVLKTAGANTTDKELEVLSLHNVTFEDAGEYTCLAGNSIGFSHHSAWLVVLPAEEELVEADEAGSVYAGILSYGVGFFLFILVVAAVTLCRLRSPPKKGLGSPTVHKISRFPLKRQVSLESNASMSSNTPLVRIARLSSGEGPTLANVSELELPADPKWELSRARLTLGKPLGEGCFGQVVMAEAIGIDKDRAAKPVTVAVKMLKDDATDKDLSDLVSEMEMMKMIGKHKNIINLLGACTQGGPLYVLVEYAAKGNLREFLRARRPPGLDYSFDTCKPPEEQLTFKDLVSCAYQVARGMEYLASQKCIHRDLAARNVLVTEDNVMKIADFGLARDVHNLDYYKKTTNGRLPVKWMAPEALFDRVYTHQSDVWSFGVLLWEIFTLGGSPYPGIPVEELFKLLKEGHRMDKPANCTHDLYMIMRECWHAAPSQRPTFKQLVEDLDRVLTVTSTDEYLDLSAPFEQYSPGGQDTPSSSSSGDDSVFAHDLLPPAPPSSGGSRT

[2] = molecular target: T2, Ba/F3-FGFR1-transfected cells (Homo sapiens, UniProt P11362, cells depend on it, form not given); assay: Ba/F3-FGFR1 (minus IL3 or plus IL3) cellular proliferation assay, Alamar Blue; assay type: cell-based; conditions: minus IL3, 24 hours
T2 construct: other: minus IL3; 24 hours, Alamar Blue
T2 sequence (P11362 whole entry, change not shown): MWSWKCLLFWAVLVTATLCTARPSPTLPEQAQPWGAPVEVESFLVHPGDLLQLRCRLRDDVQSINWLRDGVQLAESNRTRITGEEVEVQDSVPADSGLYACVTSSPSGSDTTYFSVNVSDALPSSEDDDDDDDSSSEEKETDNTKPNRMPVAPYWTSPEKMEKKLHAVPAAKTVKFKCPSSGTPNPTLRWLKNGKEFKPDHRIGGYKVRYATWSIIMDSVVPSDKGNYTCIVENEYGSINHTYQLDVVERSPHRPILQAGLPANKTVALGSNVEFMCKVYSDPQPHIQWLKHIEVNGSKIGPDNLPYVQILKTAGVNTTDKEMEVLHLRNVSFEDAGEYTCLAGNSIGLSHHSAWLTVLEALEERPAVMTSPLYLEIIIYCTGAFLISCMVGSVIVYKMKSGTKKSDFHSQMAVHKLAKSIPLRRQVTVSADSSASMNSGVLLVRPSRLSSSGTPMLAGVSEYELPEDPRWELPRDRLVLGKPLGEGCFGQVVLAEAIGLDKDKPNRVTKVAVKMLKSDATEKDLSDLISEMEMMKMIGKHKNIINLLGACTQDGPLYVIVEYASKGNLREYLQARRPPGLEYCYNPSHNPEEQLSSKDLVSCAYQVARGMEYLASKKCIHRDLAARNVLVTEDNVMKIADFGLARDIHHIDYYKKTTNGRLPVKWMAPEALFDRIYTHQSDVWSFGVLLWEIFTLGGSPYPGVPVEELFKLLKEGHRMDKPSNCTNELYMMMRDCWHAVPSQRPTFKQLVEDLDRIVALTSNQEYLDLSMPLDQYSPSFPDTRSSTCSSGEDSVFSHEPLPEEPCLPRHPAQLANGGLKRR
Description: Ba/F3-FGFR1 (Minus IL3 or Plus IL3) (Cellular Proliferation Assay)
as §2, with “Ba/F3-FGFR1-transfected” for “Ba/F3-KDR-transfected”
as §3

[3] = molecular target: Ba/F3-FGFR4-transfected cells (Homo sapiens, UniProt P22455); assay: Ba/F3-FGFR4 cellular proliferation assay, Alamar Blue; assay type: cell-based; conditions: 24 hours
Description: Ba/F3-FGFR4 (Cellular Proliferation Assay)
as §2, with “Ba/F3-FGFR4-transfected” for “Ba/F3-KDR-transfected”
In this assay, the inhibitory effect of different compound concentrations (range 10 μM to 0.1 nM) was determined and used to calculate an IC50 (M) and pIC50 (−log IC50) value.

[4] = molecular target: T3, Ba/F3-FGFR3-transfected cells (Homo sapiens, UniProt P22607, cells depend on it, form not given); assay: Ba/F3-FGFR3 (minus IL3 or plus IL3) cellular proliferation assay, Alamar Blue; assay type: cell-based; conditions: minus IL3; 24 hours, Alamar Blue
T3 construct: BAF3-FGFR3 (MIN IL3 Alamar Blue- pIC50); other: minus IL3; 24 hours, Alamar Blue
Description: (§4) Ba/F3-FGFR3 (Minus IL3 or Plus IL3) (Cellular Proliferation Assay)
as §2, with “Ba/F3-FGFR3-transfected” for “Ba/F3-KDR-transfected”
as §3

FGFR4 (h) = FGFR4 (h) (Homo sapiens, UniProt P22455); assay: FGFR4 (enzymatic assay), TR-FRET; assay type: biochemical; conditions: FGFR 4 pIC50, 5 μM ATP, 60 min; pIC50 = -log IC50 (M); average if tested multiple times
FGFR4 (h), sequence (P22455 22-802): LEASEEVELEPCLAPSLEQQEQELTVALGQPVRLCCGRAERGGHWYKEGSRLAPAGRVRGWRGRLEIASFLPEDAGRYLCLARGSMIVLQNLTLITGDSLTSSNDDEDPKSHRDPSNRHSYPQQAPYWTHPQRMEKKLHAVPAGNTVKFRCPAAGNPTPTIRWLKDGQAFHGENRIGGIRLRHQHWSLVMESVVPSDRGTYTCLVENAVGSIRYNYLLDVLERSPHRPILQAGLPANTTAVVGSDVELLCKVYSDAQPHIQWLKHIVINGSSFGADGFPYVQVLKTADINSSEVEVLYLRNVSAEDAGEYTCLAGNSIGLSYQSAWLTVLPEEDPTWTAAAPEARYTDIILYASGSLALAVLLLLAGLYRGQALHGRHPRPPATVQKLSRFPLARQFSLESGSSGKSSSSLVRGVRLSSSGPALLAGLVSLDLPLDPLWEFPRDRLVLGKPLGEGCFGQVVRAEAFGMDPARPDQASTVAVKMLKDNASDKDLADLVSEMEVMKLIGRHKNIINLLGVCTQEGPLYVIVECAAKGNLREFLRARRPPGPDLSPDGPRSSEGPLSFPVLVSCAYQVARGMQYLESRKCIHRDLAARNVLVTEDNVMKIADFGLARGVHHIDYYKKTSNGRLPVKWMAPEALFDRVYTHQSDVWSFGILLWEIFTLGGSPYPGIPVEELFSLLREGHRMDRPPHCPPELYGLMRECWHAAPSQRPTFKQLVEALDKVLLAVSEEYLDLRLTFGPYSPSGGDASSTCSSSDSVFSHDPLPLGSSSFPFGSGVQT

[5] = tested on: Ba/F3-KDR-transfected cells; assay: Ba/F3-KDR (minus IL3 or plus IL3) cellular proliferation assay, Alamar Blue; assay type: cell-based; conditions: plus IL3 (10 ng/ml murine IL3, counterscreen); 24 hours, Alamar Blue; read-out: BAF3-KDR (PLUS IL3 Alamar Blue pIC50) (converted)
Description: as §1, §2, §3

[6] = tested on: Ba/F3-FGFR3-transfected cells; assay: Ba/F3-FGFR3 (minus IL3 or plus IL3) cellular proliferation assay, Alamar Blue; assay type: cell-based; conditions: plus IL3 (10 ng/ml murine IL3, counterscreen); 24 hours, Alamar Blue; read-out: BAF3-FGFR3 (PLUS IL3 Alamar Blue pIC50) (converted)
Description: as §4
as §2, with “Ba/F3-FGFR3-transfected” for “Ba/F3-KDR-transfected”
as §3

FGFR1 (h) = FGFR1 (h) (Homo sapiens, UniProt P11362); assay: FGFR1 (enzymatic assay), TR-FRET; assay type: biochemical; conditions: FGFR 1 pIC50, 5 μM ATP, 60 min; pIC50 = -log IC50 (M); average if tested multiple times
FGFR1 (h), sequence (P11362 22-822): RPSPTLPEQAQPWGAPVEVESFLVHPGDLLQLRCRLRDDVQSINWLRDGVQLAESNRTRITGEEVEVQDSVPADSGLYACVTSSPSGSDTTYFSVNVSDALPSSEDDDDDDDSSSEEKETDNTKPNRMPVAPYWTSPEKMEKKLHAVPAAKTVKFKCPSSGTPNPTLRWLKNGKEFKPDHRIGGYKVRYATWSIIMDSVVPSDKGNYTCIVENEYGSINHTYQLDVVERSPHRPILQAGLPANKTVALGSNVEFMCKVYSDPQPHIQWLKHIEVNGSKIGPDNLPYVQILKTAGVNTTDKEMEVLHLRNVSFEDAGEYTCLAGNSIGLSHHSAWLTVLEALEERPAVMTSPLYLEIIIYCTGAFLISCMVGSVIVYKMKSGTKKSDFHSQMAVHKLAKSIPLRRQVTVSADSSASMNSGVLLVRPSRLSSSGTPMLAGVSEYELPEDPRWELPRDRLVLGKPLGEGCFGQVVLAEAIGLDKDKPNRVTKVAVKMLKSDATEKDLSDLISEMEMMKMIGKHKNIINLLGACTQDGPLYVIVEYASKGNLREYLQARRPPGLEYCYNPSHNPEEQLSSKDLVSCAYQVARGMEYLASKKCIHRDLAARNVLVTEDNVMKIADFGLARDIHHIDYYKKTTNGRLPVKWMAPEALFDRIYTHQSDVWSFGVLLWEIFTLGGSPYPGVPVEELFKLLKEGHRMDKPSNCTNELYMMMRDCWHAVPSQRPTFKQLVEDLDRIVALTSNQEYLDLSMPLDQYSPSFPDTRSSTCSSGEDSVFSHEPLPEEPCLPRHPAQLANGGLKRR

| SMILES | melting point [°C] | IC50 (KDR (h)) [M] | IC50 (FGFR2 (h)) [M] | BAF3-KDR (MIN IL3 Alamar Blue pIC50) [1] | IC50 (FGFR3 (h)) [M] | BAF3-FGFR1 (MIN IL3 pIC50) [2] | BAF3-FGFR 4 (pIC50) [3] | BAF3-FGFR3 (MIN IL3 Alamar Blue- pIC50) [4] | IC50 (FGFR4 (h)) [M] | IC50 [5] [nM] | IC50 [6] [nM] | IC50 (FGFR1 (h)) [M] |
| --- | --- | --- | --- | --- | --- | --- | --- | --- | --- | --- | --- | --- |
| C#CCN(c1ccc2ncc(-c3cnn(C)c3)cc2c1)c1cc(OC)cc(OC)c1F | 120 | – | – | – | – | – | – | – | – | – | – | – |
| COc1cc(OC)cc(N(CCCN2CCCC2=O)c2ccc3ncc(-c4cnn(C)c4)cc3c2)c1 (as salt: HCl) (hydrate or solvate) [Compound 10] | 142 | – | – | – | – | – | – | – | – | – | – | – |
| COc1cc(OC)cc(N(CCNC(C)C)c2ccc3ncc(-c4cnn(CCO)c4)cc3c2)c1 (as salt: HCl) (hydrate or solvate) [Compound 13] | 86 to 115 | – | – | – | – | – | – | – | – | – | – | – |
| COc1cc(OC)cc(C(CCNC(C)C)c2ccc3ncc(-c4cnn(C)c4)cc3c2)c1 (stereo not drawn) (as salt: HCl) [Compound 41] | > 300 | – | – | – | – | – | – | – | – | – | – | – |
| CNCCN(c1ccc2ncc(-c3cnn(C)c3)cc2c1)c1c(F)c(OC)cc(OC)c1F (as salt: HCl) [Compound 43] | 180 | – | – | – | – | – | – | – | – | – | – | – |
| COc1cc(OC)cc(/C(=C/C#N)c2ccc3ncc(-c4cnn(C)c4)cc3c2)c1 [Compound 29] | 86 | 5.62e-07 | ~6.76e-08 | 5.15 | 4.57e-08 | 5.45 | <5 | 5.29 | – | – | – | – |
| COc1cc(OC)cc(C(CCO)c2ccc3ncc(-c4cnn(C)c4)cc3c2)c1 (stereo not drawn) [Compound 34] | 131 | > 1e-06 | 1.86e-07 | <5 | 2.14e-08 | 5.01 | <5 | 5.16 | 4.17e-07 | > 10000 | > 10000 | – |
| COc1cc(OC)cc(C(CC#N)c2ccc3ncc(-c4cnn(C)c4)cc3c2)c1 (stereo not drawn) [Compound 39] | 172 | > 1e-06 | 2.82e-07 | <5 | 1.78e-07 | 5.09 | <5 | <5 | > 1e-06 | > 10000 | > 10000 | – |
| COc1cc(OC)c(F)c(N(CCNC(C)C)c2ccc3ncc(-c4cnn(C)c4)cc3c2)c1F [Compound 42] | 75 | 1.58e-08 | 3.16e-09 | 6.95 | 3.39e-09 | 8.95 | 8.25 | 8.25 | 2.88e-09 | > 10000 | > 10000 | 1.15e-09 |
| COc1cc(OC)cc(N(CCO)c2ccc3ncc(-c4ccccc4)cc3c2)c1 [Compound 50] | 111 | > 1e-06 | 5.5e-08 | <5 | 5.75e-08 | 5.11 | <5 | 5.19 | 2.57e-07 | > 10000 | > 10000 | 6.92e-08 |
| COc1cc(OC)cc(N(CCNC(C)C)c2ccc3ncc(-c4ccccc4)cc3c2)c1 [Compound 51] | – | 1.7e-07 | 3.98e-09 | 5.15 | 7.94e-09 | 6.13 | 5.87 | 5.82 | 1.38e-08 | ~6030 | > 10000 | 2.75e-09 |
| COc1cc(OC)cc(N(Cc2ncc[nH]2)c2ccc3ncc(-c4ccccc4)cc3c2)c1 [Compound 52] | 133 | 9.33e-07 | 6.61e-09 | <5 | 8.51e-09 | 5.77 | 5.48 | 6.00 | 1.66e-08 | – | – | 1.58e-08 |
| COc1cc(OC)cc(N(CCO)c2ccc3ncc(N4CCOCC4)cc3c2)c1 [Compound 54] | – | > 1e-06 | 1.82e-07 | <5 | 1.45e-07 | <5 | <5 | 5.16 | > 1e-06 | > 10000 | > 10000 | 3.8e-07 |
| COc1cc(OC)cc(N(CCO)c2ccc3ncc(-c4ccn(C)c4)cc3c2)c1 [Compound 61] | 158 | 1.91e-07 | ~1.26e-08 | 5.40 | 2.69e-09 | 6.02 | 5.66 | 5.84 | 2.09e-08 | > 10000 | > 10000 | – |
